From ChEMBL document CHEMBL1133376, “Recognition and inhibition of HIV integrase by a novel dinucleotide” (Bioorg Med Chem Lett, 2000)

How the values were obtained:
[1] = target: Human immunodeficiency virus type 1 integrase (Human immunodeficiency virus 1) (UniProt Q7ZJM1); experiment: Inhibition of 3' processing step useful in the integration of viral DNA into host cell DNA by inhibiting HIV integrase by compound
[2] = target: Human immunodeficiency virus type 1 integrase (Human immunodeficiency virus 1) (UniProt Q7ZJM1); experiment: Inhibition of strand transfer step useful in the integration of viral DNA into host cell DNA by inhibiting HIV integrase by compound

Sequence of Human immunodeficiency virus type 1 integrase (Human immunodeficiency virus 1) (Q7ZJM1 as listed by the source): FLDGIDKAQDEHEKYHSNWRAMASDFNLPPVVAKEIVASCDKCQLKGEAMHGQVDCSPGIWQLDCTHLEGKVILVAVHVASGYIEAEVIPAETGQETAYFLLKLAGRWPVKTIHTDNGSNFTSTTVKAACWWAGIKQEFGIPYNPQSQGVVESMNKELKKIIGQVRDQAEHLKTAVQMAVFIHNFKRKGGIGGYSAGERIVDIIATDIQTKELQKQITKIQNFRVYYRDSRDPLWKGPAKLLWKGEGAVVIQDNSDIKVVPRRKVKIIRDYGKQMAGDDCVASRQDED

Inhibitory activity [1] [µM]	Inhibitory activity [2] [µM]	SMILES
19	25	Nc1ccn([C@H]2C[C@H](O)[C@@H](COP(=O)(O)O[C@H]3[C@H](n4cnc5c(N)ncnc54)CO[C@@H]3COP(=O)(O)O)O2)c(=O)n1
> 200	> 200	Nc1ncnc2c1ncn2C1COC(COP(=O)(O)O)C1O (configuration not stated)
6	3	Nc1ccn([C@H]2C[C@H](O)[C@@H](COP(=O)(O)O[C@H]3C[C@H](n4cnc5c(N)ncnc54)O[C@@H]3COP(=O)(O)O)O2)c(=O)n1
50	45	Nc1ccn(C2CCC(COP(=O)(O)O)O2)c(=O)n1 (configuration not stated)
200	200	Nc1ccn([C@H]2C[C@H](O)[C@@H](COP(=O)(O)O[C@H]3[C@H](n4cnc5c(N)ncnc54)CO[C@@H]3CO)O2)c(=O)n1

SMILES	Inhibitory activity [1] [µM]	Inhibitory activity [2] [µM]
Cc1cn([C@H]2C[C@H](N=[N+]=[N-])[C@@H](COP(=O)(O)O)O2)c(=O)[nH]c1=O	> 110	140
